{"source": "patent US11058685B2", "about": "“Therapeutic agent for tumors identified by phosphorylation of proto-oncogene protein belonging to VAV family” (priority 2016, dated 2021)", "key": {"phosphorylated VAV1": {"tested_on": "phosphorylated VAV1", "assay": "Anti-phosphorylated VAV1 staining of swollen lymph node sections of AITL transplant model mice", "type": "in vivo, mouse", "settings": "nude mice; dasatinib three times daily for 2 days, 2 weeks after cell injection; sacrificed on the following day", "experimental": "In addition, donor mouse swollen lymph node-derived cells (2×10^7 cells) were all intraperitoneal injected into nude mice and, after 2 weeks, dasatinib or a control solution was administered three times daily for 2 days in accordance with the above procedure. On the following day, the nude mice were sacrificed, and thin section specimens were prepared from their swollen lymph nodes and then stained with anti-phosphorylated VAV1 antibody."}, "NFAT activity": {"tested_on": "NFAT activity", "assay": "NFAT luciferase reporter activity in Jurkat cells expressing VAV1 mutant", "type": "cell-based, human", "settings": "dasatinib 0 to 10 nM, 30 minutes, anti-CD3 stimulation, FIG. 16", "experimental": "In accordance with the protocol of Dual Luciferase Reporter Assay (Promega), firefly luciferase activity and renilla luciferase activity were each measured, and the value of firefly luciferase was divided by the value of renilla luciferase to correct the transfection efficiency. In more detail, the cells were mixed with Passive Lysis Buffer (PLB) in a volume of 100 μl/tube, followed by freezing at −80° C. to lyse the cells. After centrifugation, the supernatants were collected. In a 96-well plate. LARII was dispensed in a volume of 100 μl/well. 20 μl of each cell lysate was added. The plate was mounted on a luminometer and Stop & Glo® Reagent was added in 100 μL volumes, followed by measurement again with the luminometer.\nIn a 96-well flat-bottomed plate, LEAF™ purified anti-human CD3 Ab (BioLegend) adjusted to 10 μg/ml with PBS was dispensed in a volume of 50 μL/well and incubated overnight at 4° C. After removal of the antibody solution, each well was washed three times with sterile PBS.\nJurkat cells were seeded at 5×10^4 cells/well in a 24-well plate. […] After 30 minutes, the cells were collected and then stimulated with LEAF™ purified anti-human CD3 Ab (BioLegend) and measured for firefly luciferase activity and renilla luciferase activity by reference to Example 3 described above, etc."}, "VAV1 [1]": {"tested_on": "VAV1", "assay": "VAV1 Y174 phosphorylation (Western blot) in Jurkat cells expressing G17V RHOA mutant, anti-CD3 stimulation", "type": "cell-based, human", "settings": "dasatinib 0 to 10 nM, 30 minutes, FIG. 7(A)", "experimental": "(§1) (1) Jurkat cells (T-cell leukemia cell line) engineered with a lentivirus-mediated Tet-On system to express wild-type RHOA cDNA or a RHOA coding region modified to comprise a G to T substitution at position 50 of the coding region (hereinafter referred to as G17V RHOA cDNA) were seeded in RPMI (10% FCS, 1% PS) at 2×10^5 cells/mL in 15 cm petri dishes in triplicate. Doxycycline was added to give a final concentration of 2 μg/mL. On the following day, the cells were collected and centrifuged, and then seeded in RPMI (serum-free) at 6×10^5 cells/mL in 15 cm petri dishes in triplicate. After 4 hours, the cells were collected and washed once with sterile phosphate buffered saline (PBS), and then adjusted to 2×10^4 cells/ml and transferred to 15 ml tubes, followed by incubation at 37° C. for 5 minutes. LEAF™ purified anti-human CD3 Ab (BioLegend) and anti-mouse IgG antibody Ab (at 2 μg/ml each) were added. The cells were incubated at 37° C. for 5 minutes or 30 minutes. Cold PBS (10 ml) was added to each tube, followed by centrifugation to remove the supernatants. Lysis buffer (supplemented in advance with complete protease inhibitor and PhosSTOP) was added in a volume of 1000 μl/tube. The tubes were incubated on ice for 20 minutes and centrifuged to collect the supernatants. Laemuli's buffer and DTT were added, followed by incubation at 95° C. for 5 minutes. […]"}, "[2]": {"tested_on": "interleukin-2 mRNA expression", "assay": "Interleukin-2 mRNA expression in Jurkat cells expressing G17V RHOA mutant, CD3/CD28 bead stimulation", "type": "cell-based, human", "settings": "dasatinib 0 to 10 nM, CD3/CD28 beads, 3 hours, FIG. 8", "experimental": "Dynabeads T-activator CD3/CD28 (Veritas) were mixed with buffer (PBS supplemented with 0.1% BSA+2 mM EDTA, pH 7.4) and allowed to stand on a magnetic rack to remove the supernatant.\nJurkat cells engineered with a lentivirus-mediated Tet-On system to express wild-type or G17V RHOA cDNA were seeded in RPMI (10% FCS, 1% PS) at 2×10^5 cells/mL in 15 cm petri dishes in triplicate. Doxycycline was added to give a final concentration of 2 μg/mL. On the following day, the cells were collected and seeded in a 24-well plate. The Dynabeads T-activator CD3/CD28 (Veritas) washed above were added. After 3 and 6 hours, the cells were collected. The cells were washed once with PBS and their RNA was extracted with an RNeasy Mini Kit (Qiagen). […] IL-2 mRNA was measured with the primer/probe sets of Taqman Gene Expression Assays (Thermo Fisher Scientific). rRNA was measured with TaqMan® Ribosomal RNA Control Reagents (Thermo Fisher Scientific) and used for correction.\nJurkat cells engineered with a lentivirus-mediated Tet-On system to express wild-type RHOA or G17V RHOA cDNA were seeded in RPMI (10% FCS, 1% PS) at 2×10^5 cells/mL in 15 cm petri dishes in triplicate. […] IL-2 mRNA was measured with the primer/probe sets of Taqman Gene Expression Assays (Thermo Fisher Scientific). rRNA was measured with TaqMan® Ribosomal RNA Control Reagents (Thermo Fisher Scientific) and used for correction."}, "PLC-gamma 1": {"tested_on": "PLC-gamma 1", "assay": "PLC-gamma 1 phosphorylation (Western blot) in Jurkat cells expressing G17V RHOA mutant", "type": "cell-based, human", "settings": "dasatinib 0 to 10 nM, 30 minutes, FIG. 7(B)", "experimental": "as §1"}, "VAV1 [3]": {"tested_on": "VAV1", "assay": "VAV1 Y174 phosphorylation in Jurkat cells expressing VAV1 mutant, anti-CD3 stimulation", "type": "cell-based, human", "settings": "dasatinib 0 to 10 nM, 30 minutes, FIG. 15"}, "[4]": {"tested_on": "angioimmunoblastic T-cell lymphoma (AITL) model mice", "assay": "AITL therapeutic transplant model: nude mice injected with donor mouse swollen lymph node-derived cells", "type": "in vivo", "experimental": "An AITL model is regarded as having been established, but a long incubation period is required to observe oncogenesis after pIpC administration. For this reason, this genetically modified mouse model is not suitable for use in therapeutic experiments. Thus, an attempt was made to establish a transplant model. […] It should be noted that inflammatory cells migrating to the tumor tissue were composed of donor mouse-derived cells and host mouse-derived cells in admixture.\nDonor mouse swollen lymph node-derived cells (2×10^7 cells) were all intraperitoneally injected into nude mice and, after 2 weeks (after lymph node swelling was observed by echography in some mice), 5 mg/kg of dasatinib dissolved in a solution of propylene glycol:distill water adjusted to 1:1 was orally administered to the mice for successive 14 days (the dasatinib group: “Dasatinib” in FIG. 17). As a control, nude mice under completely the same conditions were administered with the same volume of the solution alone (propylene glycol: distill water=1:1) according to the same schedule (the control group: “Vehicle” in FIG. 17). The results of these administration experiments are show in FIG. 17."}, "[5]": {"settings": "5 mg/kg orally for successive 14 days, FIG. 17"}}, "data": [{"smiles": "Cc1nc(Nc2ncc(C(=O)Nc3c(C)cccc3Cl)s2)cc(N2CCN(CCO)CC2)n1", "note": "[dasatinib, N-(2-chloro-6-methyl-phenyl)-2-[[6-[4-(2-hydroxyethyl)-1-piperazinyl]-2-methyl-4-pyrimidinyl]amino]-5-thiazolecarboxamide]", "values": [{"measurement": "phosphorylated VAV1 staining in swollen lymph nodes", "setting": "phosphorylated VAV1", "result": "phosphorylated VAV1 was not stained"}, {"measurement": "enhanced NFAT activity induced by VAV1 mutant expression", "setting": "NFAT activity", "result": "cancels the enhanced NFAT activity"}, {"measurement": "enhanced Y174 phosphorylation (VAV1) induced by G17V RHOA mutant expression", "setting": "VAV1 [1]", "result": "cancels the enhanced Y174 phosphorylation"}, {"measurement": "enhanced interleukin-2 mRNA expression induced by G17V RHOA mutant expression", "setting": "[2]", "result": "cancels the enhanced interleukin-2 mRNA expression"}, {"measurement": "enhanced PLC-gamma 1 phosphorylation induced by G17V RHOA mutant expression", "setting": "PLC-gamma 1", "result": "cancels the enhanced PLC-gamma 1 phosphorylation"}, {"measurement": "enhanced Y174 phosphorylation induced by VAV1 mutant expression", "setting": "VAV1 [3]", "result": "cancels the enhanced Y174 phosphorylation"}, {"measurement": "mice showing progression of lymphoma (body weight loss and hyposthenia)", "setting": "[4]; 5 mg/kg orally for successive 14 days starting 2 weeks after cell injection, observation period of 150 days, 6/18", "result": 33.3, "unit": "%"}, {"measurement": "progression of lymphoma versus control group", "setting": "[4]; [5]", "result": "progression was significantly suppressed"}, {"measurement": "survival versus control group", "setting": "[4]; [5]", "result": "survival was prolonged"}]}]}
